Source: ChEMBL document CHEMBL1201862, “PubChem BioAssay data set” (2004)
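How tested: cells in 96-well plates exposed to compound for 48 hours at five concentrations. At the GI50, growth is halved.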 Activity calls are given as the source filed them. Rule as the data show it: active = GI50 up to about 1.1 µM and inactive = higher.

What was measured:
Experiment in all cases: NCI tumour cell line growth inhibition, 48 h
A498 = test system: A498
ACHN = test system: ACHN
EKVX = test system: EKVX
HOP-62 = test system: HOP-62
Hs-578T = test system: Hs-578T
IGROV-1 = test system: IGROV-1
K562 = test system: K562
M14 = test system: M14
MDA-N = test system: MDA-N
NCI/ADR-RES = test system: NCI/ADR-RES
SF-295 = test system: SF-295
SF-539 = test system: SF-539
SK-MEL-28 = test system: SK-MEL-28
SK-MEL-5 = test system: SK-MEL-5
SK-OV-3 = test system: SK-OV-3
SNB-75 = test system: SNB-75
TK-10 = test system: TK-10
UACC-62 = test system: UACC-62
NCI-H522 = test system: NCI-H522
OVCAR-4 = test system: OVCAR-4

| Structure (SMILES) | GI50 (A498) | GI50 (ACHN) | GI50 (EKVX) | GI50 (HOP-62) | GI50 (Hs-578T) | GI50 (IGROV-1) | GI50 (K562) | GI50 (M14) | GI50 (MDA-N) | GI50 (NCI/ADR-RES) | GI50 (SF-295) | GI50 (SF-539) | GI50 (SK-MEL-28) | GI50 (SK-MEL-5) | GI50 (SK-OV-3) | GI50 (SNB-75) | GI50 (TK-10) | GI50 (UACC-62) | GI50 (NCI-H522) | GI50 (OVCAR-4) |
| --- | --- | --- | --- | --- | --- | --- | --- | --- | --- | --- | --- | --- | --- | --- | --- | --- | --- | --- | --- | --- |
| COc1cc(=O)oc(/C=C/C=C/C=C/C(C)=C\C2(C)OC(C)C(C)(O)C2O)c1C (stereo not drawn) | > 100 µM (inactive) | > 100 µM (inactive) | > 100 µM (inactive) | > 100 µM (inactive) | 0.923 µM (active) | > 100 µM (inactive) | > 100 µM (inactive) | > 100 µM (inactive) | > 100 µM (inactive) | > 100 µM (inactive) | > 100 µM (inactive) | > 100 µM (inactive) | > 100 µM (inactive) | > 100 µM (inactive) | > 100 µM (inactive) | 68.7 µM (inactive) | > 100 µM (inactive) | > 100 µM (inactive) | – | – |
| Cc1cc(C)nc(NS(=O)(=O)c2ccc(NNC(=O)c3cccc4c(NNc5ccc(S(=O)(=O)Nc6nc(C)cc(C)n6)cc5)c5ccccc5nc34)cc2)n1 | – | 17.3 µM (inactive) | 18.7 µM (inactive) | 27.8 µM (inactive) | 23.4 µM (inactive) | 20 µM (inactive) | 22.2 µM (inactive) | 17.5 µM (inactive) | 20.9 µM (inactive) | 68.5 µM (inactive) | 31.8 µM (inactive) | 20.3 µM (inactive) | 23.4 µM (inactive) | 16.9 µM (inactive) | 25.3 µM (inactive) | 17.7 µM (inactive) | 35.5 µM (inactive) | 18.5 µM (inactive) | 18.1 µM (inactive) | 23.3 µM (inactive) |
| O=c1c(Br)cc2c(-c3ccccc3)c3cc(Br)c(O)c(Br)c3oc-2c1Br | 27.3 µM (inactive) | > 100 µM (inactive) | > 100 µM (inactive) | > 100 µM (inactive) | > 100 µM (inactive) | > 100 µM (inactive) | > 100 µM (inactive) | > 100 µM (inactive) | > 100 µM (inactive) | > 100 µM (inactive) | 84.9 µM (inactive) | 39.5 µM (inactive) | > 100 µM (inactive) | > 100 µM (inactive) | 48.4 µM (inactive) | – | > 100 µM (inactive) | > 100 µM (inactive) | – | 22.3 µM (inactive) |
| Cc1nc(-c2cc3c(ccc4ccccc43)oc2=O)cs1 | – | 63.7 µM (inactive) | 35.8 µM (inactive) | 35.7 µM (inactive) | 30.3 µM (inactive) | 21.5 µM (inactive) | > 100 µM (inactive) | 83.9 µM (inactive) | > 100 µM (inactive) | 48.3 µM (inactive) | 41.8 µM (inactive) | 43.3 µM (inactive) | > 100 µM (inactive) | > 100 µM (inactive) | 37.8 µM (inactive) | 36.6 µM (inactive) | 46.7 µM (inactive) | 26 µM (inactive) | 35.2 µM (inactive) | 37.7 µM (inactive) |
| CC1(C)OC[C@H](COCOP2(=O)Oc3ccc4ccccc4c3-c3c(ccc4ccccc34)O2)O1 | 16.9 µM (inactive) | 18 µM (inactive) | > 10 µM (inactive) | 21.4 µM (inactive) | 47.5 µM (inactive) | 23 µM (inactive) | 21.8 µM (inactive) | 16.3 µM (inactive) | 13.5 µM (inactive) | 18.3 µM (inactive) | 17.6 µM (inactive) | 18.8 µM (inactive) | 13.3 µM (inactive) | 24.4 µM (inactive) | 23.8 µM (inactive) | – | 20.2 µM (inactive) | 17.2 µM (inactive) | – | – |
| COc1cc(N(C)C)c(OC)cc1C=C1C=CC=C1 | > 100 µM (inactive) | > 100 µM (inactive) | > 100 µM (inactive) | > 100 µM (inactive) | > 100 µM (inactive) | > 100 µM (inactive) | 58.5 µM (inactive) | > 100 µM (inactive) | 44.1 µM (inactive) | 74.6 µM (inactive) | > 100 µM (inactive) | > 100 µM (inactive) | > 100 µM (inactive) | > 100 µM (inactive) | > 100 µM (inactive) | – | > 100 µM (inactive) | 82.4 µM (inactive) | – | – |
